In assay [1] the test system is bone marrow-derived hematopoietic progenitors. Particulars: treatment of mice, shown hitherto; cited from earlier work.
Assay [2] deals with oval cells. The assay is described as follows: Immunohistochemical count of hepatic oval cells (HPC) in HMCDE-fed mice. It counts as in vivo, mouse. The conditions noted are these: FIGS. 4A-4C, immunohistochemistry (and flow cytometry), P<0.001. How it is done: Immunohistochemical analysis of HPC was performed with a mouse monoclonal OV6-type antibody (from Dr Stuart Sell, Albany Medical College, Albany, N.Y.) reacting with cytokeratins 14 and 19; a rabbit polyclonal antibody against 56 and 64 kD human callus cytokeratins (Dako, Denmark) and a rat monoclonal antibody to cytokeratin 19 as described Am J Pathol 2002; 161:521-530.
Details of the staining procedures are as described Am J Pathol 2002; 161:521-530. Briefly, 4 um thick paraffin sections were deparaffinized and rehydrated, followed by heating in a microwave oven for 10 minutes at 750 Watt in citrate buffer, pH 6.0. Incubation with the primary antibodies was performed at room temperature for 30 minutes. Mouse monoclonal OV6 antibody and rat anti-cytokeratin 19 were detected using the DAKO Animal Research Kit, peroxidase (Dako, Denmark). The rabbit polyclonal antibody against 56 and 64 kD human callus cytokeratins was detected by anti-rabbit Envision (Dako, Denmark) as described in J Pathol 2003; 199:191-200. […]
To evaluate the effect of treatments on the HPC compartment, coded samples were examined by an experienced liver pathologist blinded to treatment groups. For each liver section, the number of HPC in 5, randomly selected, non-overlapping, high power (×40 objective) fields was counted. […] Interlobular bile ducts were not considered progenitor cells and, thus, were not counted as such.
In general terms: In flow cytometry, cells or beads pass a laser one at a time.

For assay [3], the system named is VEGF. The assay is described as follows: Ribonuclease protection assay of whole liver RNA: VEGF. The conditions noted are these: RPA, normalized to GAPDH, mean±SEM of 4 mice, HMCDE diet. The class given is in vivo, mouse. On the procedure: (§1) Total […] was isolated from frozen liver samples according to the method of Chomczynski and Sacchi as described in Gastroenterology 2002; 123: 1304-1310. KNA concentration was determined by optical density and quality was assessed by agarose gel electrophoresis and ethidium bromide staining. Commercial ribonuclease protection assay (RPA) kits with probes for murine cytokines (PharMingen, San Diego, Calif.) were used to evaluate factors that might be involved in the recruitment and expansion of HPC after liver injury. The factors studied were Stem Cell Factor (SCF), Hepatocyte Growth Factor (HGF), Interleukin-7 (IL-7), IL-11, Leukaemia Inhibitory Factor (LEF), Granulocyte-Macrophage Colony Stimulating Factor (GM-CSF), Granulocyte Colony, Stimulating Factor (G-CSF), Vascular Endothelial Growth Factor (VEGF), and its receptors, VEGFR1 and VEGFR3. Details of the RPA are described in J Pathol 2003; 199:191-200.
(§2) Total RNA was isolated from frozen liver samples as described in Mech Dev 120: 117-130, 2003. RNA concentration was determined by optical density and quality assessed by agarose gel electrophoresis and ethidium bromide staining. […]
(§3) In Table 1, Total liver RNA was obtained from 4 mice per treatment group and analyzed by RPA 20 μg RNA sample from each mouse was evaluated. Results are normalized to concurrently assessed expression of GAPDH in the same RNA samples. […]

For assay [4], the system named is VEGFR3. The assay is described as follows: Ribonuclease protection assay of whole liver RNA: VEGFR3. It counts as in vivo, mouse. The conditions noted are these: RPA, normalized to GAPDH, mean±SEM of 4 mice, HMCDE diet. On the procedure:
as §1, §2, §3

In assay [5] the test system is VEGFR1. Description: Ribonuclease protection assay of whole liver RNA: VEGFR1. The class given is in vivo, mouse. Particulars: RPA, normalized to GAPDH, mean±SEM of 4 mice, HMCDE diet. On the procedure: as §1, §2, §3
Assay [6] relates to G-CSF. Description: Ribonuclease protection assay of whole liver RNA: G-CSF. The conditions noted are these: RPA, normalized to GAPDH, mean±SEM of 4 mice, HMCDE diet. It counts as in vivo, mouse. How it is done:
as §1, §2, §3

Assay [7] relates to carbon tetrachloride-treated rats. The conditions noted are these: earlier study; cited from earlier work.
The test system of assay [8] is LIN^−ve/Thy-1^+ve cells. The assay is described as follows: Flow cytometry of putative bone marrow-derived hepatic progenitors in liver of HMCDE-fed mice. It counts as in vivo, mouse. The conditions noted are these: FIG. 4C, P<0.03 (PRZ), <0.05 (6-OHDA). From the text: The hepatic non-parenchymal cell fraction, which contains the oval cell population and the NK-T cell populations, were isolated as described in Hepatology 1998; 27:433-455 and Gastroenterology 2002; 123:[…]. Briefly, livers were carefully removed and homogenized in Stomacher80 (Seawood, England). The homogenate was then passed through a 100-μm wire mesh and liver cells were collected by centrifugation at 450 g. Mononuclear cells were purified from this fraction by centrifugation at 900 g over 35% Percoll gradients (Amersham Pharmacia Biotech) and incubated with normal mouse serum (Sigma, St Louis, Mo.) and Fc-receptor block (anti-CD16/CD32) to prevent nonspecific binding, plus APC-conjugated anti-mouse Thy-1.2 (the C57BL-6 form of the Thy-1 antibody) and antibodies directed against hematopoietic lineage markers (LIN, a mix of anti-mouse CD4, CD8, CD3, CD45, CD19, Mac-1, Gr-1, Ter119). For NK-T cell labelling, the mononuclear cells were incubated with […] anti-mouse NK-1.1 and PE-conjugated anti-mouse CD3. […] After incubation, pellets were washed to remove unbound antibodies, fixed with 2% formaldehyde and evaluated by FACS (Becton Dickenson). […] Data was analyzed by Cell Quest software (Becton Dickenson) to determine changes in these cell populations in different treatment groups.

The subject of assay [9] is HGF. Description: Ribonuclease protection assay of whole liver RNA: HGF. The conditions noted are these: for effect on HMCDE-induced increase of hepatic HGF expression: versus HMCDE alone; for Gene Expression HGF: whole liver RNA, RPA, normalized to GAPDH, mean±SEM of 4 mice, HMCDE diet. The class given is in vivo, mouse. How it is done:
as §1
Total RNA was isolated from frozen liver samples as described in Mech Dev 120: 117-130, 2003. RNA concentration was determined by optical density and quality assessed by agarose gel electrophoresis and ethidium bromide staining. Ribonuclease protection assay (RPA) kits with probes for murine cytokines (PharMingen, San Diego, Calif.) were used to evaluate factors that might be involved in the recruitment and expansion of HPC after liver injury. The factors studied were Stem Cell Factor (SCF), Hepatocyte Growth Factor ([…]), Interleukin-6 (IL-6), IL7, IL-11, Leukaemia Inhibitory Factor (LIF), Granulocyte-Macrophage Colony Stimulating Factor (GM-CSF), Macrophage Colony Stimulating Factor (M-CSF), Granulocyte Colony Stimulating Factor (G-CSF), Vascular Endothelial Growth Factor (VEGF), and its receptors, VEGFR1 and YEGFR3.
In Table 1, Total liver RNA was obtained from 4 mice per treatment group and analyzed by RPA 20 μg RNA sample from each mouse was evaluated. Results are normalized to concurrently assessed expression of GAPDH in the same RNA samples. Data shown are the mean±SEM results of 4 mice per treatment group. Similar results were obtained in a second experiment.

The subject of assay [10] is healthy rats. Particulars: healthy rats treated chronically; cited from earlier work.
The test system of assay [11] is NK-T cells. Description: Flow cytometry of liver NK-T cells in HMCDE-fed mice. The class given is in vivo, mouse. Particulars: HMCDE-treated mice; HMCDE alone 8±1%; mean±SEM.
Description: Briefly, livers were carefully removed and homogenized in Stomacher80 (Seawood, England). The homogenate was then passed through a 100-μm wire mesh and liver cells were collected by centrifugation at 450 g. Mononuclear cells were purified from this fraction by centrifugation at 900 g over 35% Percoll gradients (Amersham Pharmacia Biotech) and incubated with normal mouse serum (Sigma, St Louis, Mo.) and Fc-receptor block (anti-CD16/CD32) to prevent nonspecific binding, plus APC-conjugated anti-mouse Thy-1.2 (the C57BL-6 form of the Thy-1 antibody) and antibodies directed against hematopoietic lineage markers (LIN, a mix of anti-mouse CD4, CD8, CD3, CD45, CD19, Mac-1, Gr-1, Ter119). For NK-T cell labelling, the mononuclear cells were incubated with FTTC-conjugated anti-mouse NK-1.1 and PE-conjugated anti-mouse CD3. All antibodies were from Pharmingen except anti-mouse Ter119, which was from Cedarline lab, Canada. After incubation, pellets were washed to remove unbound antibodies, fixed with 2% formaldehyde and evaluated by FACS (Becton Dickenson). As described in Science 1999; 284:1168-1170, LN^−ve/Thy-1^+ve cells, were classified as putative bone marrow-derived, hepatic progenitor cells. Data was analyzed by Cell Quest software (Becton Dickenson) to determine changes in these cell populations in different treatment groups.

In the case of `COc1cc2nc(N3CCN(C(=O)c4ccco4)CC3)nc(N)c2cc1OC` [PRZ, prazosin], in [1], the “mobilization of hematopoietic progenitors” value was “mobilize bone marrow-derived hematopoietic progenitors into the circulation”. Also, in assay [2], the “oval cell / HPC number versus HMCDE diet alone” value was “significantly augments diet-induced HPC expansion”. Also, the “Gene Expression VEGF” value in [3] amounted to 1.4 ± 0.4. For the same compound, the “Gene Expression VEGFR3” value in [4] was found to be 1.7 ± 0.4. Also, the “Gene Expression VEGFR1” value in [5] was found to be 0.2 ± 0.2. For the same compound, the “Gene Expression G-CSF” value in assay [6] was 1.0 ± 0.3. In addition, in assay [7], the development of cirrhosis entry is “prevents the development of cirrhosis”. Further, the “LIN^−ve/Thy-1^+ve cells in liver versus HMCDE diet alone” value in assay [8] is listed as “more LIN^−ve/Thy-1^+ve cells”. Further, in [9], the “effect on HMCDE-induced increase of hepatic HGF expression” value is “did not augment this response” and the “Gene Expression HGF” value came out at 2.1 ± 0.30.
Take `NCCc1cc(O)c(O)cc1O` [6-OHDA, 6-hydroxydopamine]: the “mobilization of hematopoietic progenitors” value in assay [1] is “mobilize bone marrow-derived hematopoietic progenitors into the circulation”. The “oval cell / HPC number versus HMCDE diet alone” value in [2] is “significantly augments diet-induced HPC expansion”. The “Gene Expression VEGF” value in [3] was determined as 2.3 ± 0.5. Also, in assay [4], the “Gene Expression VEGFR3” value is given as 2.1 ± 1.0. The “Gene Expression VEGFR1” value in assay [5] stood at 0.4 ± 0.1. Besides, the “liver weight, body weight, ratio and serum ALT” value in assay [10] was “liver weight, body weight and liver weight to body weight ratios increase significantly without any associated increase in serum ALT values”. Further, the “numbers of NK-T cells in the liver, % liver mononuclear cells” value in [11] amounted to 3.6 ± 0.6%. The “Gene Expression G-CSF” value in assay [6] is 1.4 ± 0.3. The “LIN^−ve/Thy-1^+ve cells in liver versus HMCDE diet alone” value in [8] is “more LIN^−ve/Thy-1^+ve cells”. Also, in [9], the “effect on HMCDE-induced increase of hepatic HGF expression” value is on record as “did not augment this response” and the “Gene Expression HGF” value is recorded as 2.4 ± 0.75.

These data come from patent US20110118277A1, “METHOD OF TREATING LIVER DISEASE” (priority 2003, published 2011).
